From patent US20240067631A1, “PYRAZOLE DERIVATIVES USEFUL AS NAMPT MODULATORS” (Cytokinetics, Inc., priority 2020, published 2024)

Biological target: human NAMPT (Homo sapiens (Human), UniProt P43490)
Experiment: Human recombinant enzyme assay (NMN fluorescence biochemical assay)
Details: 6 nM human NAMPT, 60 min; for AC1.4 Human: concentration of compound that generates 40% higher activity over basal; for EC50: concentration that gives half-maximal activation
Protocol: Compounds described herein were assayed for their ability to stimulate the synthesis of nicotinamide mononucleotide (NMN) by the enzyme NAMPT. The human recombinant enzyme assay measures the activation of the enzyme activity by compounds using recombinant enzyme and substrates in a buffered cell-free system. The assay conditions closely mimic cellular environments. Dose responses were measured using an assay to detect the formation of nicotinamide mono-nucleotide. All experiments were performed in the 384-well format. Generally, 0.5 μL of DMSO containing varying concentrations of the test compound was mixed with 10 μL of the enzyme reagent solution. Enzyme reactions were initiated with the addition of 10 μL of a solution containing the substrates. The final assay conditions were as follows: 6 nM human NAMPT, 2.5 mM ATP, […] in 50 mM HEPES, pH 7.2, 1 mM DTT, 1 mM CHAPS 50 mM NaCl, 100 mM MgCl2. Following an incubation of 60 min at ambient temperature, 10 μL of 20% acetophenone in DMSO was added, followed by 10 μL of 2 M KOH and 40 μL of formic acid. The plates were read for fluorescence (Excitation/Emission=355 nm/460 nm) using an EnVision plate reader after 40 mins of incubation at ambient temperature. The potency measurements for compounds, are quantified and represented as AC1.4 (the concentration of compounds that generates 40% higher activity over basal) and EC50 (concentration of the compound that gives half-maximal activation).

human NAMPT, sequence (P43490 whole entry): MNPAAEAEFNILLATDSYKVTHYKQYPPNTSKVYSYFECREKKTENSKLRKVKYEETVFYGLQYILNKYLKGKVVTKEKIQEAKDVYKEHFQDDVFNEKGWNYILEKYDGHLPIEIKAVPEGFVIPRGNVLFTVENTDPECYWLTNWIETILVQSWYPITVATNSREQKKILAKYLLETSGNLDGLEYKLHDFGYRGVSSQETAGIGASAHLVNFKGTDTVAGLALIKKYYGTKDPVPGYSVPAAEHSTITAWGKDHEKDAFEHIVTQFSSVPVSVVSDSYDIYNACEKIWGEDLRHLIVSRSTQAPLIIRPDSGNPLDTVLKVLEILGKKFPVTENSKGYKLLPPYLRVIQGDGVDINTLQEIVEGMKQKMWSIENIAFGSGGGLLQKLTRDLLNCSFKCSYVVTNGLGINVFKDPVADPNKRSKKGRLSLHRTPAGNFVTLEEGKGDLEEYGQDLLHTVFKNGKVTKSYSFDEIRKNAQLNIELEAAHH

| SMILES | AC1.4 Human [µM] | EC50 [nM] |
| --- | --- | --- |
| Cc1nc(C(=O)N2CC(O)(C(F)(F)F)C2)nc(NCCc2cn[nH]c2)c1C [Compound 48, (4-((2-(1H-pyrazol-4-yl)ethyl)amino)-5,6-dimethylpyrimidin-2-yl)(3-hydroxy-3-(trifluoromethyl)azetidin-1-yl)methanone] | 0.2925 | 6840 |
| COC[C@H](NC(=O)c1nc(C)c(C)c(NCCc2cn[nH]c2)n1)c1cccc(F)c1 [Compound 49, (R)-4-((2-(1H-pyrazol-4-yl)ethyl)amino)-N-(1-(3-fluorophenyl)-2-methoxyethyl)-5,6-dimethylpyrimidine-2-carboxamide] | 0.3055 | 2100 |
| Cc1nc(C(=O)NCCc2ccccc2)nc(NCCc2cn[nH]c2)c1C [Compound 50, 4-((2-(1H-pyrazol-4-yl)ethyl)amino)-5,6-dimethyl-N-phenethylpyrimidine-2-carboxamide] | 0.311 | 2080 |
| Cc1nc(C(=O)N2CC(O)(c3cccc(F)c3F)C2)nc(NCCc2cn[nH]c2)c1C [Compound 51, (4-((2-(1H-pyrazol-4-yl)ethyl)amino)-5,6-dimethylpyrimidin-2-yl)(3-(2,3-difluorophenyl)-3-hydroxyazetidin-1-yl)methanone] | 0.327 | 1880 |
| Cc1nc(C(=O)N2CC[C@H](c3ccccc3)C2)nc(NCCc2cn[nH]c2)c1C [Compound 52, (R)-(4-((2-(1H-pyrazol-4-yl)ethyl)amino)-5,6-dimethylpyrimidin-2-yl)(3-phenylpyrrolidin-1-yl)methanone] | 0.3305 | 1780 |
| Cc1nc(C(=O)N(C)[C@H](C)c2ccccc2Cl)nc(NCCc2cn[nH]c2)c1C [Compound 53, (R)-4-((2-(1H-pyrazol-4-yl)ethyl)amino)-N-(1-(2-chlorophenyl)ethyl)-N,5,6-trimethylpyrimidine-2-carboxamide] | 0.3335 | 2600 |
| Cc1nc(C(=O)N2CCC[C@@H]2c2ccccc2F)nc(NCCc2cn[nH]c2)c1C [Compound 54, (R)-(4-((2-(1H-pyrazol-4-yl)ethyl)amino)-5,6-dimethylpyrimidin-2-yl)(2-(2-fluorophenyl)pyrrolidin-1-yl)methanone] | 0.35 | 2370 |
| Cc1nc(C(=O)NCc2cccc(F)n2)nc(NCCc2cn[nH]c2)c1C [Compound 55, 4-((2-(1H-pyrazol-4-yl)ethyl)amino)-N-((6-fluoropyridin-2-yl)methyl)-5,6-dimethylpyrimidine-2-carboxamide] | 0.375 | 4680 |
| Cc1nc(C(=O)N[C@H](C)c2ncccc2F)nc(NCCc2cn[nH]c2)c1C [Compound 56, (R)-4-((2-(1H-pyrazol-4-yl)ethyl)amino)-N-(1-(3-fluoropyridin-2-yl)ethyl)-5,6-dimethylpyrimidine-2-carboxamide] | 0.439 | 1370 |
| Cc1nc(C(=O)NCC2CN(C(=O)c3ccccc3)C2)nc(NCCc2cn[nH]c2)c1C [Compound 57, 4-((2-(1H-pyrazol-4-yl)ethyl)amino)-N-((1-benzoylazetidin-3-yl)methyl)-5,6-dimethylpyrimidine-2-carboxamide] | 0.396 | 2880 |
| Cc1nc(C(=O)NCc2coc3ccccc23)nc(NCCc2cn[nH]c2)c1C [Compound 58, 4-((2-(1H-pyrazol-4-yl)ethyl)amino)-N-(benzofuran-3-ylmethyl)-5,6-dimethylpyrimidine-2-carboxamide] | 0.406 | 788 |
| Cc1nc(C(=O)N[C@@H](C)c2ccccc2)nc(NCCc2cn[nH]c2)c1C [Compound 59, (S)-4-((2-(1H-pyrazol-4-yl)ethyl)amino)-5,6-dimethyl-N-(1-phenylethyl)pyrimidine-2-carboxamide] | 0.4045 | 3080 |
| Cc1nc(C(=O)N2CC(O)(Cc3ccccc3)C2)nc(NCCc2cn[nH]c2)c1C [Compound 60] | 0.4085 | 3750 |
| Cc1nc(C(=O)N2CC[C@@H](c3ccccc3)C2)nc(NCCc2cn[nH]c2)c1C [Compound 61, (S)-(4-((2-(1H-pyrazol-4-yl)ethyl)amino)-5,6-dimethylpyrimidin-2-yl)(3-phenylpyrrolidin-1-yl)methanone] | 0.409 | 2110 |
| Cc1nc(C(=O)N2C[C@@H](C)OC[C@H]2c2ccccc2)nc(NCCc2cn[nH]c2)c1C [Compound 62, (4-((2-(1H-pyrazol-4-yl)ethyl)amino)-5,6-dimethylpyrimidin-2-yl)((2R,5R)-2-methyl-5-phenylmorpholino)methanone] | 0.4295 | 3210 |
| Cc1nc(C(=O)N2CCOC[C@@H]2c2ccccc2)nc(NCCc2cn[nH]c2)c1C [Compound 63, (S)-(4-((2-(1H-pyrazol-4-yl)ethyl)amino)-5,6-dimethylpyrimidin-2-yl)(3-phenylmorpholino)methanone] | 0.4315 | 2280 |
| Cc1nc(C(=O)N2CCOC[C@H]2Cc2ccccc2)nc(NCCc2cn[nH]c2)c1C [Compound 64, (R)-(4-((2-(1H-pyrazol-4-yl)ethyl)amino)-5,6-dimethylpyrimidin-2-yl)(3-benzylmorpholino)methanone] | 0.458 | 2160 |
| Cc1nc(C(=O)N[C@H](C)c2coc3ccccc23)nc(NCCc2cn[nH]c2)c1C [Compound 65, (R)-4-((2-(1H-pyrazol-4-yl)ethyl)amino)-N-(1-(benzofuran-3-yl)ethyl)-5,6-dimethylpyrimidine-2-carboxamide] | 0.4805 | 1690 |
| Cc1nc(C(=O)N2CCC(c3ccccc3F)C2)nc(NCCc2cn[nH]c2)c1C (stereo not shown) [Compound 66, (4-((2-(1H-pyrazol-4-yl)ethyl)amino)-5,6-dimethylpyrimidin-2-yl)(3-(2-fluorophenyl)pyrrolidin-1-yl)methanone] | 4.5565 | 16300 |
| Cc1nc(C(=O)N2CCOCC2c2ccc(F)cc2)nc(NCCc2cn[nH]c2)c1C (stereo not shown) [Compound 67, (4-((2-(1H-pyrazol-4-yl)ethyl)amino)-5,6-dimethylpyrimidin-2-yl)(3-(4-fluorophenyl)morpholino)methanone] | 0.505 | 3860 |
| COc1cccc(C(C)NC(=O)c2nc(C)c(C)c(NCCc3cn[nH]c3)n2)n1 (stereo not shown) [Compound 68, 4-((2-(1H-pyrazol-4-yl)ethyl)amino)-N-(1-(6-methoxypyridin-2-yl)ethyl)-5,6-dimethylpyrimidine-2-carboxamide] | 0.563 | 1640 |
| Cc1nc(C(=O)NC(C)(C)c2ccccn2)nc(NCCc2cn[nH]c2)c1C [Compound 69, 4-((2-(1H-pyrazol-4-yl)ethyl)amino)-5,6-dimethyl-N-(2-(pyridin-2-yl)propan-2-yl)pyrimidine-2-carboxamide] | 0.5395 | 4180 |
| Cc1nc(C(=O)NC(C)c2ccc(Cl)s2)nc(NCCc2cn[nH]c2)c1C (stereo not shown) [Compound 70, 4-((2-(1H-pyrazol-4-yl)ethyl)amino)-N-(1-(5-chlorothiophen-2-yl)ethyl)-5,6-dimethylpyrimidine-2-carboxamide] | 0.5795 | 3120 |
